# Where two headings read alike, the source gives them in different places. Where a SMILES comes first, the peptide text is derived from it. Where no end group is shown, it is not given here.
# Columns and labels:
# [1] = test system: HNE; details: AAPV from co-axial wet-spun microfibers; cited from earlier work
# Description: During the first 6 h of incubation, nearly 10% of HNE was inhibited by the peptide released from the PCL fibers. This is consistent with the data from Figure 5 since, at this point, >50% of the peptide molecules have been released. In fact, in the absence of PEG, HNE inhibition reached its maximum at this stage, maintaining the levels of enzyme activity in a constant manner until the 24 h period. […] However, considering its hydrophobic nature and affinity towards PCL, it i ...
# [2] = test system: bacteria; details: effectiveness limited to concentrations over this; cited from earlier work
# From the text: Despite its efficacy, the widespread pharmaceutical application of peptides faces obstacles, including limited stability in physiological settings and susceptibility to environmental factors. However, AAPV’s overall hydrophilicity (despite the presence of hydrophobic domains) tends to reduce its bioavailability and cellular tissue permeability. The attachment of hydrophobic carriers/molecules can overcome these limitations. Tryptophan (W) is an aromatic hydrophobic amino acid, which has been associated with the activation of antibacterial properties (disturbance of bacterial membra ...
# [3] = test system: human neutrophil elastase (HNE; elastase from human leukocytes); details: 1 h, 37 °C, 405 nm, n = 3, cited from earlier work
# Description: Table 1 Inhibition of HNE activity by AAPV [8] and WAAPV at varying concentrations (n = 3). | column: HNE Inhibition (%) / AAPV || AAPV presented its maximum inhibitory capacity at a concentration of 50 μg/mL, which is in accordance with previous research conducted by our team. According to Namjoshi et al., the ability of HNE to digest substrates decreases with increasing inhibitor concentrations. […] Suc ...
# [4] = test system: S. aureus; details: loaded at the core of co-axial microfibers; cited from earlier work
# Description: From the very first moments of incubation, PEG-containing fibers were the ones reporting the highest bacterial inhibitions, a minimum of ≈30% against S. aureus and ≈40% against E. coli. […] In general, the highest ratings for peptide-induced inhibition (in many instances potentiated by PEG) were ...
# [5] = cited from earlier work
# From the text: Static contact angle measurements are a conventional method to determine the wettability of surfaces. This method involves assessing the angle formed between the solid surface, the liquid droplet, and the vapor phase at the three-phase contact point. […] Electrospun fibers unlo ...
# [6] = test system: human neutrophil elastase (HNE); assay: HNE inhibition by peptide-loaded electrospun fibers; format: biochemical; details: AAPV from PCL electrospun fibers, PBS, 37 °C
# [7] = format: physicochemical
# Description: Thermal responses of the fibers were assessed by a thermogravimetric analysis (TGA). Weight loss was monitored as the temperature increased from 25 to 600 °C at a heating rate of 10 °C/min under a dynamic nitrogen atmosphere with a flow rate of 200 mL/min, using an STA 7200 instrument (Hitachi®, Fukuoka, Japan) and aluminum pans. Results were plotted as the percentage of weight loss vs. temperature. Water contact angles were determined using an OCA 200 goniometer, Data Physics (Filderstadt, Germany), following an adaptation of the ASTM-[…]-08 standard. Droplets of 5.0 μL of dH2O, ejected at a rate of 2.0 μL/s, were used to measure the fibers' wettability via the sessile drop method. Six measurements were conducted per type of sample. Angles were recorded immediately after drop contact with the surface (≈10 s after contact).
# [8] = test system: Staphylococcus aureus ATCC 6538; format: cell-based; details: ATCC 6538, 24 h
# Description: Minimum inhibitory concentration (MIC) of both peptides and PEG was determined, against S. aureus and E. coli by the broth microdilution method, based on a publication by the Clinical and Laboratory Standards Institute (CLSI) and European Committee on Antimicrobial Susceptibility Testing (EUCAST). For this test, AAPV and WAAPV were dissolved in dH2O at a concentration of 4.096 mg/mL, whereas PEG was also diluted in dH2O at 10.240 mg/mL, working as stock solutions. […] Then, a bacterium suspension at 1 × 10^6 CFUs/mL was added to the wells. Controls consisting of MHB and bacteria suspensions free from any of the active agents were produced, representing the negative and positive control samples, respectively. Absorbance readings were conducted with an EZ Read 2000 Microplate Reader at 600 nm before (0 h) and 24 h after incubation at 37 °C at 120 rpm. MIC was then perceived by the differences between the several absorbance readings. Minimum bactericidal concentrations (MBCs) were established by the culture of the same bacterium suspensions at MIC and their vicinities (dilutions before and after MIC value). Aliquots were collected and diluted in PBS (10^−1–10^−4). Then, the aliquots were plated in TSA and incubated at 37 °C during 24 h, after which the grown colonies were observed and counted.
# [9] = format: physicochemical; details: not told
# Description: The fibers’ capacity for air exchange (permeability) was examined according to standard ISO 9237 [24]. Air pressure of 200 Pa was applied on three samples of each typology in three randomly selected points of 1.33 cm^2 (1.30 cm diameter), and the permeability was measured. For determining the porosity (P%) of the samples [25], measurements of the amount of ethanol absorbed after 1 h of immersion in static conditions and RT (Equation (1)) were used:(1) P(%)=Ww−WD/ρEthanolVSample×100, where WW and WD are the weight of the wet and dry samples, respectively; ρethanol is the density of the ethanol at RT (0.789 g/cm^3); and Vsample is the volume of the wet sample, determined by measuring the 6 mm diameter samples’ thickness with a pachymeter. The experiment was performed in triplicate.
compound,measurement,setting,value
CC(C)[C@H](NC(=O)[C@@H]1CCCN1C(=O)[C@H](C)NC(=O)[C@H](C)N)C(=O)O (H-AAPV-OH),main degradation step of free peptide,,200 °C
"CC(C)[C@H](NC(=O)[C@@H]1CCCN1C(=O)[C@H](C)NC(=O)[C@H](C)N)C(=O)O [AAPV, alanine–alanine–proline–valine] (H-AAPV-OH)",time of maximum HNE inhibition,[1],24 h
same,effective antimicrobial concentration,[2],over 2 mg/mL
same,HNE Inhibition,[3]; AAPV 0.10 μg/mL,0.79 ± 0.008%
same,HNE Inhibition,[3]; AAPV 0.20 μg/mL,2.37 ± 0.007%
same,HNE Inhibition,[3]; AAPV 0.39 μg/mL,3.43 ± 0.005%
same,HNE Inhibition,[3]; AAPV 0.78 μg/mL,4.07 ± 0.004%
same,HNE Inhibition,[3]; AAPV 1.56 μg/mL,6.43 ± 0.005%
same,HNE Inhibition,[3]; AAPV 3.13 μg/mL,8.07 ± 0.007%
same,HNE Inhibition,[3]; AAPV 6.25 μg/mL,8.84 ± 0.002%
same,HNE Inhibition,[3]; AAPV 12.50 μg/mL,9.56 ± 0.011%
same,HNE Inhibition,[3]; AAPV 25.00 μg/mL,12.69 ± 0.002%
same,HNE Inhibition,[3]; AAPV 50.00 μg/mL,16.89 ± 0.010%
same,HNE Inhibition,[3]; AAPV 100.00 μg/mL,9.53 ± 0.010%
same,HNE Inhibition,"[3]; AAPV 200.00 μg/mL, substrate N-MeO-Suc-Ala-Ala-Pro-Val-p-NA, 0.1 M Tris-HCl, HNE 45 mU",5.74 ± 0.010%
same,S. aureus inhibitory activity,[4],found to potentiate this inhibitory activity against S. aureus
same,hydrophilicity of overall structure,[5],hydrophilic
same,time of maximum HNE inhibition,[6],6 h
CC(C)[C@H](NC(=O)[C@@H]1CCCN1C(=O)[C@H](C)NC(=O)[C@H](C)N)C(=O)O [PCL + AAPV] (H-AAPV-OH),mass loss before main degradation step,[7],~8%
same,temperature at which (main) thermal degradation starts,[7],≈ 335 °C
H-WAAPV-OH,main degradation step of free peptide,,200 °C
WAAPV [PCL + WAAPV],mass loss before main degradation step,[7],< 4%
same,temperature at which (main) thermal degradation starts,[7],≈ 365 °C
WAAPV [WAAPV],MBC,[8],2048 µg/mL
same,MIC,[8],2048 µg/mL
polycaprolactone [PCL],Air Permeability,[9],0.523 ± 0.057 L/min
same,mass loss before main degradation step,[7],< 4%
same,temperature at which (main) thermal degradation starts,[7],≈ 370 °C
same,temperature range of main thermal degradation,[7],370-435 °C
